Results reported in the supplement of paper PMC10307832.

Experiments:
Test in all cases: relative viability (nuclei count vs DMSO), 5 days (fraction); higher = more cells survive
[1] = compound: CC1=C(C(=NN1)C)CC2=C(C3=C(S2)N(C(=O)N(C3=O)C)CC(C)C)C(=O)N4C[C@@H](CO4)O + COc1cc2c(Oc3ccc(NC(=O)C4(C(=O)Nc5ccc(F)cc5)CC4)cc3F)ccnc2cc1OCCCN1CCOCC1 [Foretinib] (partner 0.25 µM)
Outline: (§1)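 Lung cancer cell lines in 1536-well plates got either a single drug or a fixed anchor-drug dose together with five library-drug doses (not always all listed) in √10 steps, by pin tool, on the day after seeding. Nuclei were counted after 5 days, and relative viability is the treated-to-vehicle ratio of nuclei counts. Values are medians of duplicate plates.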

[2] = compound: CC1=C(C(=NN1)C)CC2=C(C3=C(S2)N(C(=O)N(C3=O)C)CC(C)C)C(=O)N4C[C@@H](CO4)O + CS(=O)(=O)CCNCc1ccc(-c2ccc3ncnc(Nc4ccc(OCc5cccc(F)c5)c(Cl)c4)c3c2)o1 [Lapatinib] (partner 2 µM)
Outline: as §1

IDH-C35 + OSI-027 = compound: Cc1ccccc1C(C(=O)NC1CCCCC1)N(C(=O)Cn1ccnc1C)c1cccc(F)c1 [IDH-C35] + COc1cccc2cc(-c3nc([C@H]4CC[C@H](C(=O)O)CC4)n4ncnc(N)c34)[nH]c12 [OSI-027] (partner 0.5 µM)
Outline: as §1

IDH-C35 + AZD7762 = compound: Cc1ccccc1C(C(=O)NC1CCCCC1)N(C(=O)Cn1ccnc1C)c1cccc(F)c1 [IDH-C35] + NC(=O)Nc1cc(-c2cccc(F)c2)sc1C(=O)N[C@H]1CCCNC1 [AZD7762] (partner 0.2 µM)
Outline: as §1

| Cell Line | relative viability ([1]; first compound 0.0025 µM) | relative viability ([1]; first compound 0.007906 µM) | relative viability ([1]; first compound 0.025 µM) | relative viability ([1]; first compound 0.07906 µM) | relative viability ([1]; first compound 0.25 µM) | relative viability ([2]; first compound 0.0025 µM) | relative viability ([2]; first compound 0.007906 µM) | relative viability ([2]; first compound 0.025 µM) | relative viability ([2]; first compound 0.07906 µM) | relative viability ([2]; first compound 0.25 µM) | relative viability (IDH-C35 + OSI-027; first compound 0.08 µM) | relative viability (IDH-C35 + OSI-027; first compound 0.253 µM) | relative viability (IDH-C35 + OSI-027; first compound 0.8 µM) | relative viability (IDH-C35 + OSI-027; first compound 2.53 µM) | relative viability (IDH-C35 + OSI-027; first compound 8 µM) | relative viability (IDH-C35 + AZD7762; first compound 0.08 µM) | relative viability (IDH-C35 + AZD7762; first compound 0.253 µM) | relative viability (IDH-C35 + AZD7762; first compound 0.8 µM) | relative viability (IDH-C35 + AZD7762; first compound 2.53 µM) | relative viability (IDH-C35 + AZD7762; first compound 8 µM) |
| --- | --- | --- | --- | --- | --- | --- | --- | --- | --- | --- | --- | --- | --- | --- | --- | --- | --- | --- | --- | --- |
| NCI-H727 | 1.15 | 1.13 | 0.882 | 0.876 | 0.897 | 1.17 | 0.857 | 0.781 | 0.569 | 0.869 | 0.805 | 0.474 | 0.464 | 0.588 | 0.592 | 0.633 | 0.655 | 0.539 | 0.469 | 0.597 |
| NCI-H838 | 1.06 | 1.04 | 0.983 | 0.974 | 0.99 | 1.03 | 1.06 | 0.907 | 0.778 | 0.96 | 0.406 | 0.402 | 0.369 | 0.383 | 0.398 | 1.09 | 0.922 | 0.918 | 0.953 | 0.925 |
| NCI-H1355 | 1.04 | 1.11 | 1 | 1.02 | 1.12 | 1.08 | 1.11 | 0.918 | 0.945 | 0.943 | 0.422 | 0.445 | 0.382 | 0.466 | 0.395 | 0.805 | 0.889 | 0.715 | 0.72 | 0.657 |
| NCI-H1395 | 1.11 | 1.04 | 0.804 | 0.812 | 0.824 | 0.941 | 0.948 | 0.776 | 0.839 | 0.949 | 0.66 | 0.701 | 0.709 | 0.618 | 0.579 | 0.396 | 0.408 | 0.407 | 0.446 | 0.403 |
| NCI-H1437 | 1.26 | 1.29 | 1.18 | 1.3 | 1.24 | 0.925 | 0.981 | 0.738 | 0.795 | 0.922 | 0.876 | 0.907 | 0.842 | 0.828 | 0.756 | 1.09 | 1.12 | 1.17 | 1.06 | 1.08 |
| NCI-H1651 | 0.708 | 0.832 | 0.735 | 0.821 | 0.815 | 0.922 | 0.971 | 0.771 | 0.766 | 0.833 | 0.7 | 0.686 | 0.746 | 0.644 | 0.703 | 0.454 | 0.518 | 0.463 | 0.438 | 0.413 |
| NCI-H1666 | 0.93 | 0.995 | 0.897 | 0.94 | 1.03 | 0.72 | 0.584 | 0.734 | 0.786 | 0.669 | 0.828 | 0.81 | 0.865 | 0.845 | 0.841 | 0.934 | 1.03 | 0.795 | 0.712 | 0.94 |
| NCI-H1734 | 0.811 | 0.976 | 0.896 | 0.9 | 0.916 | 1.19 | 1.11 | 1.02 | 0.986 | 0.812 | 0.643 | 0.621 | 0.564 | 0.6 | 0.597 | 0.575 | 0.623 | 0.532 | 0.49 | 0.551 |
| NCI-H1755 | 0.97 | 0.996 | 0.873 | 0.911 | 0.897 | 1.04 | 0.919 | 1.02 | 1.04 | 1.07 | 0.754 | 0.64 | 0.707 | 0.68 | 0.706 | 0.47 | 0.574 | 0.453 | 0.452 | 0.462 |
| NCI-H1793 | 0.67 | 0.784 | 0.732 | 0.665 | 0.605 | 0.514 | 0.649 | 0.549 | 0.431 | 0.426 | 0.225 | 0.256 | 0.279 |  | 0.262 | 0.46 | 0.446 | 0.46 | 0.349 | 0.443 |
| NCI-H1915 | 1.18 | 1.12 | 1.05 | 1.01 | 1.11 | 0.98 | 1.02 | 0.953 | 0.967 | 1.06 | 0.645 | 0.602 | 0.62 | 0.597 | 0.56 | 0.674 | 0.7 | 0.696 | 0.663 | 0.716 |
| NCI-H1944 | 0.985 | 1.02 | 0.898 | 1.02 | 0.889 | 0.877 | 0.94 | 0.951 | 0.822 | 0.92 | 0.418 | 0.415 | 0.413 | 0.442 | 0.392 | 0.587 | 0.731 | 0.492 | 0.462 | 0.491 |
| NCI-H1975 | 0.946 | 1.06 | 1 | 0.949 | 0.984 | 0.792 | 0.942 | 0.916 | 0.995 | 1.08 | 0.64 | 0.71 | 0.778 | 0.741 | 0.763 | 0.755 | 0.75 | 0.766 | 0.818 | 0.793 |
| NCI-H1993 | 0.767 | 0.719 | 0.827 | 0.711 | 0.749 | 0.856 | 0.809 | 0.744 | 0.745 | 0.947 | 0.522 | 0.532 | 0.57 | 0.505 | 0.555 | 0.755 | 0.749 | 0.755 | 0.784 | 0.713 |
| NCI-H2085 | 0.965 | 0.803 | 0.957 | 0.796 | 0.827 | 0.706 | 0.767 | 0.598 | 0.72 | 0.595 | 0.772 | 0.929 | 0.722 | 0.741 | 0.638 | 1.04 | 1.09 | 0.953 | 0.985 | 0.924 |
| NCI-H2087 | 1.05 | 1.05 | 1.03 | 0.811 | 1.07 | 1.11 | 1.15 | 1.09 | 0.939 | 1.23 | 0.59 | 0.518 | 0.537 |  | 0.532 | 1.39 | 1.32 | 1.16 | 1.23 | 1.36 |
| NCI-H2126 | 1.28 | 0.958 | 1.03 | 1.29 | 0.947 | 0.816 | 0.739 | 0.78 | 0.741 | 0.739 | 0.767 | 0.731 | 0.68 | 0.651 | 0.677 | 0.983 | 0.96 | 0.983 | 0.927 | 0.946 |
| NCI-H2170 | 0.989 | 1.09 | 0.984 | 0.972 | 1.08 | 0.282 | 0.279 | 0.276 | 0.273 | 0.306 | 0.669 | 0.661 | 0.739 | 0.71 | 0.676 | 1.04 | 0.919 | 0.899 | 0.786 | 0.757 |
| NCI-H2347 | 1.23 | 1.13 | 0.716 | 0.831 | 0.881 | 0.993 | 0.956 | 0.86 | 0.964 | 1.09 | 0.467 | 0.48 | 0.477 | 0.324 | 0.369 | 0.781 | 0.799 | 0.884 | 0.718 | 0.658 |
| NCI-H2405 | 1.09 | 1.05 |  | 0.978 | 1.01 | 1.26 | 1.1 |  | 1.18 | 1.12 | 0.651 | 0.651 | 0.622 | 0.567 | 0.621 | 0.857 | 0.771 | 0.815 | 0.913 | 0.768 |
| NCI-H3122 | 0.936 | 0.982 | 0.988 | 0.99 | 0.983 | 1.06 | 1.03 | 1.01 | 0.993 | 1.02 | 1.03 | 1.04 | 0.929 | 0.917 | 0.948 | 1.02 | 0.996 | 1.02 | 0.987 | 1.03 |
| PC-3 [JPC-3] | 1.14 | 1.01 | 1.05 | 1.02 | 1.08 | 0.475 | 0.411 | 0.501 | 0.522 | 0.427 | 0.767 | 0.74 | 0.747 | 0.809 | 0.747 | 0.75 | 0.867 | 0.86 | 0.844 | 0.78 |
| PC-14 | 0.973 | 0.936 | 0.941 | 0.942 | 1.09 | 0.373 | 0.413 | 0.32 | 0.32 | 0.359 | 0.956 | 0.798 | 0.755 | 0.837 | 0.711 | 0.339 | 0.427 | 0.32 | 0.302 | 0.387 |
| RERF-LC-KJ | 0.866 | 0.942 | 0.909 | 0.886 | 0.935 | 0.899 | 0.928 | 0.86 | 0.885 | 0.941 | 0.562 | 0.631 | 0.643 | 0.614 | 0.597 | 1.03 | 1.03 | 0.982 | 0.794 | 1.01 |
